Test system: human keratinocyte cell line (HaCaT)
Test: Cytokine secretion on protein level in activated human keratinocyte cell line HaCaT (13-plex FACS / Luminex, supernatant)
Type: cell-based
Summary of the method: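 Primary T-cells from peripheral blood of healthy volunteers, or HaCaT cells, were activated with PMA/Ionomycin or IFN-γ for 48 h and treated with tripeptides. Supernatants were collected 48 h and 72 h after stimulation and cytokines (IL-1, IL-2, IL-6, IL-12p70, IL-17, IFN-γ, TNF-α) were measured by 13-plex FACS.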

[1] = HaCaT stimulated with IFN-γ, 10^−9M
[2] = HaCaT stimulated with IFN-γ, 10^−9M, excluded from the final assessment
[3] = HaCaT stimulated with IFN-γ, substance 10^−9M
[4] = HaCaT stimulated with PBS, 10^−9M
[5] = HaCaT stimulated with PBS, 10^−9M, excluded from the final assessment
[6] = HaCaT stimulated with PBS, substance 10^−9M
[7] = HaCaT stimulated with PMA/Ionomycin, 10^−9M
[8] = HaCaT stimulated with PMA/Ionomycin, 10^−9M, excluded from the final assessment
[9] = HaCaT stimulated with PMA/Ionomycin, substance 10^−9M

Substance: alpha-melanocyte-stimulating hormone [α-MSH, reference compound]
- IL-1 cytokine concentration [1]: 238.96 pg/mL
- IL-2 cytokine concentration [1]: 119.87 pg/mL
- IL-4 cytokine concentration [1]: 70.08 pg/mL
- IL-5 cytokine concentration [1]: 184.1 pg/mL
- IL-6 cytokine concentration [1]: 750.84 pg/mL
- IL-9 cytokine concentration [1]: 83.5 pg/mL
- IL-10 cytokine concentration [1]: 82.71 pg/mL
- IL-13 cytokine concentration [1]: 55.34 pg/mL
- IL-17 cytokine concentration [1]: 598.13 pg/mL
- TNF-α cytokine concentration [1]: 67.75 pg/mL
- IL-12p70 cytokine concentration [2]: 0 pg/mL
- IL-22 cytokine concentration [2]: 0 pg/mL
- IL-1 cytokine concentration [3]: 0 pg/mL
- IL-2 cytokine concentration [3]: 0 pg/mL
- IL-4 cytokine concentration [3]: 0 pg/mL
- IL-5 cytokine concentration [3]: 0 pg/mL
- IL-6 cytokine concentration [3]: 202.37 pg/mL
- IL-9 cytokine concentration [3]: 0 pg/mL
- IL-10 cytokine concentration [3]: 0 pg/mL
- IL-12 cytokine concentration [3]: 0 pg/mL
- IL-12p70 cytokine concentration [3]: 0 pg/mL
- IL-13 cytokine concentration [3]: 0 pg/mL
- IL-17 cytokine concentration [3]: 95.44 pg/mL
- IL-22 cytokine concentration [3]: 0 pg/mL
- TNF-α cytokine concentration [3]: 45.91 pg/mL
- IFN-γ cytokine concentration [4]: 365.47 pg/mL
- IL-1 cytokine concentration [4]: 271.66 pg/mL
- IL-2 cytokine concentration [4]: 251.78 pg/mL
- IL-4 cytokine concentration [4]: 56.84 pg/mL
- IL-5 cytokine concentration [4]: 150.8 pg/mL
- IL-6 cytokine concentration [4]: 76.75 pg/mL
- IL-9 cytokine concentration [4]: 124.69 pg/mL
- IL-10 cytokine concentration [4]: 107.72 pg/mL
- IL-13 cytokine concentration [4]: 65.47 pg/mL
- IL-17 cytokine concentration [4]: 544.96 pg/mL
- TNF-α cytokine concentration [4]: 97.16 pg/mL
- IL-12p70 cytokine concentration [5]: 0 pg/mL
- IL-22 cytokine concentration [5]: 9847.56 pg/mL
- IFN-γ cytokine concentration [6]: 0 pg/mL
- IL-1 cytokine concentration [6]: 0 pg/mL
- IL-2 cytokine concentration [6]: 0 pg/mL
- IL-4 cytokine concentration [6]: 118.52 pg/mL
- IL-5 cytokine concentration [6]: 0 pg/mL
- IL-6 cytokine concentration [6]: 15.22 pg/mL
- IL-9 cytokine concentration [6]: 9.51 pg/mL
- IL-10 cytokine concentration [6]: 39.54 pg/mL
- IL-12 cytokine concentration [6]: 0 pg/mL
- IL-12p70 cytokine concentration [6]: 0 pg/mL
- IL-13 cytokine concentration [6]: 0 pg/mL
- IL-17 cytokine concentration [6]: 0 pg/mL
- IL-22 cytokine concentration [6]: 0 pg/mL
- TNF-α cytokine concentration [6]: 0 pg/mL
- IFN-γ cytokine concentration [7]: 617.26 pg/mL
- IL-1 cytokine concentration [7]: 143.16 pg/mL
- IL-2 cytokine concentration [7]: 98.72 pg/mL
- IL-4 cytokine concentration [7]: 72.6 pg/mL
- IL-5 cytokine concentration [7]: 131.91 pg/mL
- IL-6 cytokine concentration [7]: 113.54 pg/mL
- IL-9 cytokine concentration [7]: 105.55 pg/mL
- IL-10 cytokine concentration [7]: 111.19 pg/mL
- IL-13 cytokine concentration [7]: 55.34 pg/mL
- IL-17 cytokine concentration [7]: 338.9 pg/mL
- TNF-α cytokine concentration [7]: 103.98 pg/mL
- IL-12p70 cytokine concentration [8]: 0 pg/mL
- IL-22 cytokine concentration [8]: 9995.76 pg/mL
- IFN-γ cytokine concentration [9]: 0 pg/mL
- IL-1 cytokine concentration [9]: 0 pg/mL
- IL-2 cytokine concentration [9]: 0 pg/mL
- IL-4 cytokine concentration [9]: 113.12 pg/mL
- IL-5 cytokine concentration [9]: 0 pg/mL
- IL-6 cytokine concentration [9]: 179.03 pg/mL
- IL-9 cytokine concentration [9]: 0 pg/mL
- IL-10 cytokine concentration [9]: 93.2 pg/mL
- IL-12 cytokine concentration [9]: 0 pg/mL
- IL-12p70 cytokine concentration [9]: 0 pg/mL
- IL-13 cytokine concentration [9]: 0 pg/mL
- IL-17 cytokine concentration [9]: 0 pg/mL
- IL-22 cytokine concentration [9]: 0 pg/mL
- TNF-α cytokine concentration [9]: 0 pg/mL

Reference: patent publication US10954269B2, “Anti-inflammatory tripeptides” (Dr. August Wolff Gmbh & Co. KG Arzneimittel, priority 2013, dated 2021)
